Converted amounts (≈) assume the structure as drawn. Where two headings read alike, the source gives them in different places.
Legend:
Format in all cases: cell-based
[1] = system: Candida parapsilosis USP 1933; assay: MIC/CFM by microdilution (CLSI M27-A2); details: Lodderomyces parapsilosis, USP1933; for MIC: read-out: MIC
[2] = system: Candida tropicalis USP 1658; assay: MIC by microdilution (CLSI M27-A2); details: Candida tropicalis, USP1658; Table 12, C. tropicalis USP 1658, 48 h, 35° C.; read-out: MIC
[3] = system: Candida albicans OF-M7-19; assay: MIC/CFM by microdilution (CLSI M27-A2); details: Candida albicans, OFM719; for MIC: read-out: MIC
Description: (§1) Pure substances termed P1 and P2 previously dissolved in 20% DMSO, were diluted in RPMI medium, with final concentrations of 96 μg.mL-1. […] The same was also tested individually, diluted in RPMI medium, with initial concentration of 1 μL.mL-1. […] Cultures of Candida sp. were prepared and standardized in […] saline solution at 0.85%. For inoculums standardization, a spectrophotometer equipment was used, with wavelength at 530 nm and absorbance adjustment between 0.130 and 0.150, having as white the saline solution free of inoculum or any other contaminant, corresponding to concentrations of 10^6 CFU/mL. In this condition the inoculum “mother” was diluted 50 times and from this inoculum “child” the dilution was performed 20 times to obtain a standard inoculum in 10^3 cells per well. […] To aid in the growth view, were added to the wells dye 50 μL 2,3,5-triphenyltetrazolium chloride (TTC) at 5 mg.mL “1, being performed the readings after 4 hours of incubation. Prior to the addition of dye, aliquots of 96-well plate were transferred to Petri with Agar-Sabouraud Dextrose to determine the Minimum Fungicidal Concentration. Plates were incubated for 24 hours at 35° C.

Candida albicans USP 1 = assay: MIC/CFM by microdilution (CLSI M27-A2); details: Candida albicans, USP1; for MIC: read-out: MIC
Description: as §1

[4] = system: Candida albicans OF-M3-20; assay: MIC/CFM by microdilution (CLSI M27-A2); details: Candida albicans, OFM320; for MIC: read-out: MIC
Description: as §1

Candida glabrata ATCC = assay: MIC/CFM against Candida sp. strains; details: Nakaseomyces glabratus, Table 14, Candida glabrata ATCC
[5] = system: Phomopsis longicolla (soy isolate); assay: MIC by microdilution, filamentous fungi (CLSI M38-A); details: Diaporthe longicolla, 168 h; Table 13, Phomopsis longicolla- soy, 7 days, 28° C.; read-out: MIC
Description: (§2) Pure substances termed P1 and P2 previously dissolved in 20% DMSO, were diluted in RPMI medium, with final concentrations of 96 μg.mL-1. […] Cultures of filamentous fungi described below were inoculated in Agar-Batata Dextrose medium and inoculated for 7 days, at 28° C. Colonies of cultures inoculated for 7 days in an oven at 28° C. were shrouded with 0.85% saline solution, scraped and then transferred to conical tubes. After resting for 5 minutes, the supernatant was transferred to new conical tubes for subsequent quantification in spectrophotometer, at 530 nm, with the transmittance adjustment of 80-82% for A. niger and 70% for other microorganisms. After adjustment, there was a 1:50 dilution in RPM. The determination of Minimum Inhibitory Concentration was performed after 7 days, at 28° C. After the incubation period, aliquots of 96-well plates were transferred to Petri plates with Potato Dextrose Agar, to determine the Minimum Fungicidal Concentration. Plates were inoculated for more 7 days, at 28° C.

[6] = system: Microsporum canis ATCC 32903; assay: as above; details: ATCC32903, 168 h; Table 13, Microsporum canis ATCC 32903, 7 days, 28° C.; read-out: MIC
Description: as §2

[7] = system: Trichophyton menthagrophyton ATCC 9533; assay: as above; details: ATCC9533, 168 h; Table 13, Trichophyton menthagrophyton ATCC 9533, 7 days, 28° C.; read-out: MIC
Description: as §2

[8] = system: Candida parapsilosis ATCC 22019; assay: MIC/CFM by microdilution (CLSI M27-A2); details: Lodderomyces parapsilosis, ATCC22019; for MIC: read-out: MIC
[9] = system: Candida albicans USP 1565; assay: MIC by microdilution (CLSI M27-A2); details: Candida albicans, USP1565; Table 12, C. albicans USP 1565, 48 h, 35° C.; read-out: MIC
Candida krusei ATCC 6258 = assay: MIC/CFM by microdilution (CLSI M27-A2); details: Pichia kudriavzevii, ATCC6258, read-out: MIC
[10] = system: Candida guilhermondii USP; assay: MIC/CFM by microdilution (CLSI M27-A2); details: for MIC: read-out: MIC
[11] = system: Candida tropicalis USP B3; assay: MIC by microdilution (CLSI M27-A2); details: Candida tropicalis, USPB3; Table 14, C. Tropicalis UPS B3; read-out: MIC
Candida krusei USP 2223 = assay: MIC by microdilution (CLSI M27-A2); details: Pichia kudriavzevii, USP2223, read-out: MIC
C. Albicans USP 2 = assay: MIC/CFM against Candida sp. strains

## Clc1ccc(COC(Cn2ccnc2)c2ccc(Cl)cc2Cl)c(Cl)c1 (centres unmarked) [Miconazol]
[1]; Table 12, C. parapsilosis USP 1933, 48 h, 35° C.
  MIC: 1 µg/mL (≈ 2.4 µM)
[1]; Table 14, C. parapsilosis USP 1933 ATCC, read-out: CFM (Minimum Fungicidal Concentration)
  MFC: < 0.5 µg/mL
[1]; Table 14, C. parapsilosis USP 1933 ATCC
  MIC: < 0.5 µg/mL
[2]
  MIC: < 2 µg/mL
[3]; Table 12, C. albicans OF M7-19, 48 h, 35° C.
  MIC: < 0.125 µg/mL
[3]; Table 14, C. Albicans OF M7-19, read-out: CFM (Minimum Fungicidal Concentration)
  MFC: < 0.5 µg/mL
[3]; Table 14, C. Albicans OF M7-19
  MIC: < 0.5 µg/mL
Candida albicans USP 1; Table 12, C. albicans USP 1, 48 h, 35° C.
  MIC: < 0.125 µg/mL
Candida albicans USP 1; Table 14, C. Albicans USP 1, read-out: CFM (Minimum Fungicidal Concentration)
  MFC: 4 µg/mL (≈ 9.61 µM)
Candida albicans USP 1; Table 14, C. Albicans USP 1
  MIC: 1 µg/mL (≈ 2.4 µM)
[4]; Table 12, C. albicans OF M3-20, 48 h, 35° C.
  MIC: < 0.125 µg/mL
[4]; Table 14, C. Albicans OF M3-20, read-out: CFM (Minimum Fungicidal Concentration)
  MFC: < 0.5 µg/mL
[4]; Table 14, C. Albicans OF M3-20
  MIC: < 0.5 µg/mL
Candida glabrata ATCC
  MIC: < 0.5 µg/mL
Candida glabrata ATCC; read-out: CFM (Minimum Fungicidal Concentration)
  MFC: 2 µg/mL (≈ 4.81 µM)
[5]
  MIC: < 0.125 µg/mL
[6]
  MIC: 2 µg/mL (≈ 4.81 µM)
[7]
  MIC: 2 µg/mL (≈ 4.81 µM)
[8]; Table 12, C. parapsilosis ATCC 22019, 48 h, 35° C.
  MIC: 1 µg/mL (≈ 2.4 µM)
[8]; Table 14, C. parapsilosis ATCC 22019, read-out: CFM (Minimum Fungicidal Concentration)
  MFC: 1 µg/mL (≈ 2.4 µM)
[8]; Table 14, C. parapsilosis ATCC 22019
  MIC: 1 µg/mL (≈ 2.4 µM)
[9]
  MIC: < 0.125 µg/mL
Candida krusei ATCC 6258; Table 12, C. krusei ATCC 6258, 48 h, 35° C.
  MIC: < 1 µg/mL
Candida krusei ATCC 6258; Table 14, C. krusei ATCC
  MIC: 1 µg/mL (≈ 2.4 µM)
[10]; Candida, Table 12, C. guilhermondii USP, 48 h, 35° C.
  MIC: 2 µg/mL (≈ 4.81 µM)
[10]; Table 14, Candida guilhermondi USPATCC, read-out: CFM (Minimum Fungicidal Concentration)
  MFC: 1 µg/mL (≈ 2.4 µM)
[10]; Table 14, Candida guilhermondi USPATCC
  MIC: 1 µg/mL (≈ 2.4 µM)
[11]
  MIC: < 0.5 µg/mL
Candida krusei USP 2223; Table 12, C. krusei USP 2223, 48 h, 35° C.
  MIC: 1 µg/mL (≈ 2.4 µM)
Candida krusei USP 2223; Table 14, C. krusei USP 2223
  MIC: 4 µg/mL (≈ 9.61 µM)
C. Albicans USP 2; Table 14, C. Albicans USP 2
  MIC: < 0.5 µg/mL
C. Albicans USP 2; Table 14, C. Albicans USP 2, read-out: CFM (Minimum Fungicidal Concentration)
  MFC: < 0.5 µg/mL

From US20150126465A1, “PROCESS FOR PRODUCING DERIVATIVES OF PYROSTEGIA VENUSTA, DERIVATIVES OF PYROSTEGIA VENUSTA, PHARMACEUTICAL COMPOSITIONS AND ITS USES” (priority 2011, published 2015)
